# Laboratory results reported in patent publication US9439975B2, “Small efficient cell penetrating peptides derived from the scorpion toxin maurocalcine” (Commissariat A L'Energie Atomique Et Aux Energies …, priority 2011, dated 2016).
# “Also recorded” adds a separate entry of the source. Square brackets hold non-standard residues; d marks the D form. Primed or numbered codes have the meaning given here. Ends that are not written are not given here. Cy5″ = Cy5 dye, coupled as maleimide to the C-terminal Cys; Abu = CC[C@H](N)C(=O)O; Cy5 = Cy5 label
# How the values were obtained:
# CHO cells [1] = assay: Amiloride sensitivity of peptide cell entry (macropinocytosis inhibition), flow cytometry; format: cell-based, Chinese hamster; conditions: for amiloride-sensitivity of cell penetration: Cy5 as cargo, flow cytometry (FIG. 4); for inhibition of cell penetration by amiloride: 2 hrs, peptide with or without 5 mM amiloride (FIG. 4A)
# Procedure: CHO and F98 cells were incubated with various concentrations of Cy5-labeled peptides in F-12K culture medium without serum at 37° C. for 2 hrs. The cells were then washed with PBS to remove excess extracellular peptide and treated with 1 mg/ml trypsin (INVITROGEN) for 5 min at 37° C. to detach cells from the surface, and centrifuged at 200 g before suspension in PBS. […] For all these experimental conditions, flow cytometry analyses were performed with live cells using a Becton Dickinson flow cytometer LSR II or an Accuri® flow cytometer (BD BIOSCIENCES). Data were obtained and analyzed using FCS express software (DE NOVO) or Accuri® proprietary software CFlow sampler. Live cells were gated by forward/side scattering from a total of 10,000 events.
# F98 cell line = assay: Confocal microscopy of peptide penetration in F98 cell line, comparison with Tat; format: cell-based, rat
# Procedure: (§1) For analysis of the subcellular localization of MCa-Cy5 analogues in living cells, cell cultures were incubated with the fluorescent peptides for 2 hrs, and then washed with phosphate-buffered saline (PBS) alone. The plasma membrane was stained with 5 μg/ml rhodamine-conjugated concanavalin A (MOLECULAR PROBES) for 5 min. Cells were washed once more. Live cells were then immediately analyzed by confocal laser scanning microscopy using a Leica TCS-SPE operating system. Rhodamine (580 nm) and Cy5 (670 nm) were sequentially excited and emission fluorescence were collected in z-confocal planes of […] steps.
# (§2) Cy5-labeled peptides derived from MCaUF1-9 were synthesized and assayed by confocal microscopy or flow cytometry as described in example 1.
# F98 rat glioma cell line = assay: Flow cytometry of dose-dependent cell penetration in F98 cells; format: cell-based; conditions: Cy5-labeled peptides
# Procedure: (§3) Chinese hamster ovary (CHO) and F98 rat glioma cell lines (from ATCC) were maintained at 37° C. in 5% CO2 in F-12K nutrient medium (INVITROGEN) supplemented with 10% (v/v) heat-inactivated fetal bovine serum (INVITROGEN) and 10,000 units/ml streptomycine and penicillin (INVITROGEN) for the CHO cells, and 2% heat-inactivated fetal bovine serum and 100 units/ml streptomycine and penicillin for the F98 cells
# (§4) CHO and F98 cells were incubated with various concentrations of Cy5-labeled peptides in F-12K culture medium without serum at 37° C. for 2 hrs. The cells were then washed with PBS to remove excess extracellular peptide and treated with 1 mg/ml trypsin (INVITROGEN) for 5 min at 37° C. to detach cells from the surface, and centrifuged at 200 g before suspension in PBS. For experiments with the macropinocytosis inhibitor, amiloride, CHO cells were initially washed with F-12K and preincubated for 30 min at 37° C. with 1 mM amiloride (SIGMA). The cells were then incubated for 2 hrs at 37° C. with 1 μM of the Cy5-MCa analogues. For all these experimental conditions, flow cytometry analyses were performed with live cells using a Becton Dickinson flow cytometer LSR II or an Accuri® flow cytometer (BD BIOSCIENCES). Data were obtained and analyzed using FCS express software (DE NOVO) or Accuri® proprietary software CFlow sampler. Live cells were gated by forward/side scattering from a total of 10,000 events.
# as §2
# CHO cells [2] = assay: Confocal microscopy of subcellular localization of Cy5-labeled peptides in living CHO cells (rhodamine-concanavalin A membrane stain); format: cell-based, Chinese hamster; conditions: 2 hrs; for Rhodamine-positive staining also Cy5-positive (pixels): Cy5/rhodamine colocalization; for Cy5-positive pixels rhodamine-positive (colocalization with the plasma membrane indicator): FIG. 3
# Procedure: as §1
# CHO cells [3] = assay: Flow cytometry of cell penetration of Cy5-labeled peptides in CHO cells; format: cell-based, Chinese hamster; conditions: for dose-dependent cell penetration: concentrations up to 33 μM; for cell penetration (fluorescence accumulation within cells): 2 hrs incubation, 3 μM peptide, trypsin treatment
# Procedure: Each peptide was labeled with Cy5 according to the manufacturer's protocol (GE HEALTHCARE). Peptides were dissolved at 1 mg/ml in 0.1 M Na2CO3 buffer, pH 9.3. 300 μl of the solubilized peptides were added to Cy5-maleimide containing tubes. The mixtures were incubated during 2 hrs at room temperature and then purified by HPLC using an analytical Vydac C18 column. Elution of the Cy5-labeled peptides was performed with a 10-60% acetonitrile linear gradient containing 0.1% trifluoroacetic acid. The pure peak fractions were lyophilized and peptides quantified by UV spectrophotometer at 649 nm.
# as §3, §4
# cells = conditions: streptavidine as cargo, earlier studies; cited from earlier work
# [4] = biological target: ryanodine receptor type 1 (RyR1) (Oryctolagus cuniculus, UniProt P11716); conditions: earlier reports; cited from earlier work
# ryanodine receptor type 1 (RyR1), sequence (P11716 whole entry): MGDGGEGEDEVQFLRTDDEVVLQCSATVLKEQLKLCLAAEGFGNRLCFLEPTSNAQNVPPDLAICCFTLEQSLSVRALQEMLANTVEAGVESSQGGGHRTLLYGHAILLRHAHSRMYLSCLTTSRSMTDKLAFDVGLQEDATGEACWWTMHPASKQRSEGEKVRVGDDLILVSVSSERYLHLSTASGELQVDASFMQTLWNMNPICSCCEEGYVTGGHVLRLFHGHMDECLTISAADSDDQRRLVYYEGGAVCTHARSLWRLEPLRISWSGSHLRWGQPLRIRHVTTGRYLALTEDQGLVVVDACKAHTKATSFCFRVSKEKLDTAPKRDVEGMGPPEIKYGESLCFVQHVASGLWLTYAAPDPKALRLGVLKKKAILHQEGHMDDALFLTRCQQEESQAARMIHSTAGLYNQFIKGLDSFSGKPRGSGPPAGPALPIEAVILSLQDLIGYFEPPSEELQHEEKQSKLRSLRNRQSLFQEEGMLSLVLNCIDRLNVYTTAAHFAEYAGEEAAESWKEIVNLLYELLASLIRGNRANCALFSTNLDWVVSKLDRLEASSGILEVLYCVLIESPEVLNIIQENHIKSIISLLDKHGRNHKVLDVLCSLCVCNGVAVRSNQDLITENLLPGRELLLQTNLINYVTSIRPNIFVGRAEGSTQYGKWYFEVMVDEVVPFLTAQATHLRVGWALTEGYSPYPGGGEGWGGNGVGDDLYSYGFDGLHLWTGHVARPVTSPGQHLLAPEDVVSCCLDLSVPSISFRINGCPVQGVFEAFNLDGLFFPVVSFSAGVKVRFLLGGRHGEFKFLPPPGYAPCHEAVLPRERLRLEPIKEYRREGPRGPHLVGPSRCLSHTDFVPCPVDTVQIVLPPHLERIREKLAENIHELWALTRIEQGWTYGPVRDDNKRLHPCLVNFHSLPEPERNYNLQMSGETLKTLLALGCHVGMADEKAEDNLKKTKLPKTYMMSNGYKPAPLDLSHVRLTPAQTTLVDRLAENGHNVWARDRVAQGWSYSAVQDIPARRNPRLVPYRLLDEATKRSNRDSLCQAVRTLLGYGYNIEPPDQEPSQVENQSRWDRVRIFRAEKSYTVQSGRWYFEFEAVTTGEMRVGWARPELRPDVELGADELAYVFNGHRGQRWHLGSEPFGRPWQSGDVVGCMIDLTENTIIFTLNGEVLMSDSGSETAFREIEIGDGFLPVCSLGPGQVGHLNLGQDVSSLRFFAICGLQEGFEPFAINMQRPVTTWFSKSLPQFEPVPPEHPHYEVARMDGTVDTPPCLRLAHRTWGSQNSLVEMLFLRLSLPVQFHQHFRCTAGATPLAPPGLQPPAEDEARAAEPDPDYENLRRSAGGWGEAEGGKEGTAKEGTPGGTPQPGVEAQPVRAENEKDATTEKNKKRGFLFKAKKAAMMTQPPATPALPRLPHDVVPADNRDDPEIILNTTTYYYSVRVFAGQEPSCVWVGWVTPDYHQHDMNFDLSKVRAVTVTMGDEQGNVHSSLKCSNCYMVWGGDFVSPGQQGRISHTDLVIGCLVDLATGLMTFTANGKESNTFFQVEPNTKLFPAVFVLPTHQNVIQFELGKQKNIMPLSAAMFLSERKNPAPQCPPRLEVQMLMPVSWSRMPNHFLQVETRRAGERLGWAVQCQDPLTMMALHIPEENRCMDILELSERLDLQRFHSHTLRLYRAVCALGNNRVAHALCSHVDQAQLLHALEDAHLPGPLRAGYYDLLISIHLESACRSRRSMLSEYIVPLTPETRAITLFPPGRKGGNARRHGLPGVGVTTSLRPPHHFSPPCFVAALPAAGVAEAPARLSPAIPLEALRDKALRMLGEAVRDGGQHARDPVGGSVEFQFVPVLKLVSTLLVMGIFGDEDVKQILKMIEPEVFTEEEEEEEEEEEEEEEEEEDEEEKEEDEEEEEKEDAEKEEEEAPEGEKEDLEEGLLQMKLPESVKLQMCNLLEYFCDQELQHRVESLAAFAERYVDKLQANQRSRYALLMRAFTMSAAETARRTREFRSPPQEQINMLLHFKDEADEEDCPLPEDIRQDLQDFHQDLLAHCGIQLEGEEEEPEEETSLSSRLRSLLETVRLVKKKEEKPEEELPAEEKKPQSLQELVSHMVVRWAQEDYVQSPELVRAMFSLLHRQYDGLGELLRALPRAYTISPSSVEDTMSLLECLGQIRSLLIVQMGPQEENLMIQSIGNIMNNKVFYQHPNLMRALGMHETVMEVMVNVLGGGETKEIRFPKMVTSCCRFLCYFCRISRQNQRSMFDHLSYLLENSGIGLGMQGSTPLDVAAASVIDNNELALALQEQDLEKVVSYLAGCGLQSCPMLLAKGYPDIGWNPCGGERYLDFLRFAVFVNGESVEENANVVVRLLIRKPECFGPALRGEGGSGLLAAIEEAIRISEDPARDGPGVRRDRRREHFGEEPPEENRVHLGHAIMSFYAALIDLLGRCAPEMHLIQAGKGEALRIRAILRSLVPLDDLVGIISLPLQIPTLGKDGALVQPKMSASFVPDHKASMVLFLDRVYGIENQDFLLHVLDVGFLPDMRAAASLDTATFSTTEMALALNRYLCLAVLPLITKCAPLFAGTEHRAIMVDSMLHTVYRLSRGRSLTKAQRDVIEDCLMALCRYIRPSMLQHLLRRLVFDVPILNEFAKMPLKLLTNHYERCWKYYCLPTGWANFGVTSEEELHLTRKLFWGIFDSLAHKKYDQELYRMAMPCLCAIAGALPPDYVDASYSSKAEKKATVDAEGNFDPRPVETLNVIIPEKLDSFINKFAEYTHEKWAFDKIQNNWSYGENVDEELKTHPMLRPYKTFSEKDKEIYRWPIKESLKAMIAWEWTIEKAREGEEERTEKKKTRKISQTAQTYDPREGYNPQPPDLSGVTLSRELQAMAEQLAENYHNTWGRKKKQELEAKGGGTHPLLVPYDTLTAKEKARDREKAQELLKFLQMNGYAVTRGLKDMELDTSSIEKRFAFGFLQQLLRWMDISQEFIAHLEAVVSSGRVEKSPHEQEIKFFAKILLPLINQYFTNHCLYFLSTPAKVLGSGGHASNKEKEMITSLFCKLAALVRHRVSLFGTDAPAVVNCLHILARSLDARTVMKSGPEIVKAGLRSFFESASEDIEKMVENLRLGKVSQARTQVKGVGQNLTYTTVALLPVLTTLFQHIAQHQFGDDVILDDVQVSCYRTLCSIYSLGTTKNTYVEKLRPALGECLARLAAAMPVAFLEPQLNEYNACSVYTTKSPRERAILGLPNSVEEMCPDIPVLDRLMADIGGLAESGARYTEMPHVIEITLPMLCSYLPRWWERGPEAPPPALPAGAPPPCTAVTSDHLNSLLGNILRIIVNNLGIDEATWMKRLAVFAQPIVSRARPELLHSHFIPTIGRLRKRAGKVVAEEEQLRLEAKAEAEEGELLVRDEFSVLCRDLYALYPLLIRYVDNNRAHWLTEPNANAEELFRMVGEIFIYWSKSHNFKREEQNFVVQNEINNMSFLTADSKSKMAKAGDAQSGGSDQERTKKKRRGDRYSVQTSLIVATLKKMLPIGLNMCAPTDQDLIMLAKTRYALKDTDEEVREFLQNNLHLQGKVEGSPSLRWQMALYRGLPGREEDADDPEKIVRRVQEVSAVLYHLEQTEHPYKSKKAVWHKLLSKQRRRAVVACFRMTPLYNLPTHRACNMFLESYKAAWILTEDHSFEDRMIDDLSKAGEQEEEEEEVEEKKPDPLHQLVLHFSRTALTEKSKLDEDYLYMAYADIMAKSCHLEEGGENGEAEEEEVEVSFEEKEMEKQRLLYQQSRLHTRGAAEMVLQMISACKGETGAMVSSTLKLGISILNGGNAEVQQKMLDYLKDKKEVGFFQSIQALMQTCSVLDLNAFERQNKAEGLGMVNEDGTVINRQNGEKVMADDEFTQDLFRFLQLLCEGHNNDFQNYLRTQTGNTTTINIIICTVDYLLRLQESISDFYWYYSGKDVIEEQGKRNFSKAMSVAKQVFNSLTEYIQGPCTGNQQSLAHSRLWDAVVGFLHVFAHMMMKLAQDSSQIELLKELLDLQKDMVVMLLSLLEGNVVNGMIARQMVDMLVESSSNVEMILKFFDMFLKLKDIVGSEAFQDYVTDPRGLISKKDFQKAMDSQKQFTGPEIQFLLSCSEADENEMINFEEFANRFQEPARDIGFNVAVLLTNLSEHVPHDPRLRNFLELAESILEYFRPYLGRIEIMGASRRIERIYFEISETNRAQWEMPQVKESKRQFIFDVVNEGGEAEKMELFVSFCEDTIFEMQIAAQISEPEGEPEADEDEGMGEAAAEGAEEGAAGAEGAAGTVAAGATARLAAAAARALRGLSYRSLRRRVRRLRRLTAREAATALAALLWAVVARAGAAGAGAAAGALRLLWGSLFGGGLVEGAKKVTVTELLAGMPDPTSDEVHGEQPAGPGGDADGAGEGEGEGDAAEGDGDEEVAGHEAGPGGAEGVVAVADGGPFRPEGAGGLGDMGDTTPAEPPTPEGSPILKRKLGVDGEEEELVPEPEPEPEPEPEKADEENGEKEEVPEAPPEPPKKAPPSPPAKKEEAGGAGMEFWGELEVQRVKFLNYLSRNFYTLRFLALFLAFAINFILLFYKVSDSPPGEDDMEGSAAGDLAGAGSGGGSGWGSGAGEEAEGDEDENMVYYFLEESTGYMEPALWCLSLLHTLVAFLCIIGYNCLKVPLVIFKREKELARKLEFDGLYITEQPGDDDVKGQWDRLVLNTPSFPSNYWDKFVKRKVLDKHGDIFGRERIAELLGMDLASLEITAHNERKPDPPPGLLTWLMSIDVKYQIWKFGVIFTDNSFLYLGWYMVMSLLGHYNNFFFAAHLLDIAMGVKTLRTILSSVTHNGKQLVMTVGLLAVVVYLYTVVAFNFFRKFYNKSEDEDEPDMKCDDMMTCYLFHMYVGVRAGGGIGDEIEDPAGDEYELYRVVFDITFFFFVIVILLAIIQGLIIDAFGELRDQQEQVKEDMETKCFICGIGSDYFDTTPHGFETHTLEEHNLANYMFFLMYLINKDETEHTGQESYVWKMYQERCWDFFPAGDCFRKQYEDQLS
substance,measurement,setting,value
SKKaKRRGTNIEKRaR (SKK[Abu]KRRGTNIEKR[Abu]R) [MCaUF18-33],amiloride-sensitivity of cell penetration,CHO cells [1],macropinocytosis entry-independent
"GDWLPHLKL (MCa1-9, C3W variant) [MCaUF1-9(W3)]",penetration compared with 3 μM Tat,F98 cell line; 1 μM peptide,proved better CPP than Tat at 3 μM
same,cell penetration (CPP efficiency),F98 rat glioma cell line,ones of the best performing CPPs
MCaUF14-33-C-Cy5: MCaUF14-33-C (SEQ ID NO: 143) labeled with Cy5 (KD[Abu][Abu]SKK[Abu]KRRGTNIEKR[Abu]RC(Cy5″)),Rhodamine-positive staining also Cy5-positive (pixels),CHO cells [2],best performing
same,Cy5-positive pixels rhodamine-positive (colocalization with the plasma membrane indicator),CHO cells [2],higher values of colocalization
MCaUF18-33-C-Cy5: MCaUF18-33-C (SEQ ID NO: 137) labeled with Cy5 (SKK[Abu]KRRGTNIEKR[Abu]RC(Cy5″)),Rhodamine-positive staining also Cy5-positive (pixels),CHO cells [2],best performing
same,amiloride-sensitivity of cell penetration,CHO cells [1],enhance rather than inhibit the cell penetration
same,dose-dependent cell penetration,CHO cells [3]; 2 hrs,performed drastically better than the other truncated peptides
GDaWPHLKL (GD[Abu]WPHLKL) [MCaUF1-9(Abu3-W4)],penetration compared with 3 μM Tat,F98 cell line; 1 μM peptide,proved better CPP than Tat at 3 μM
GTNIEKRaRC (GTNIEKR[Abu]RC) [MCaUF25-33-C],cell penetration (fluorescence accumulation within cells),CHO cells [3],have also CPP properties
GDaLPHLKL (GD[Abu]LPHLKL) [MCaUF1-9],penetration compared with 3 μM Tat,F98 cell line; 3 μM peptide,proved better CPP than Tat at 3 μM
same,cell penetration (CPP efficiency),F98 rat glioma cell line,ones of the best performing CPPs
same,dose-dependent cell penetration,CHO cells [3]; 2 hrs,penetrates better at low concentration
MCaUF22-33-C-Cy5: MCaUF22-33-C (SEQ ID NO: 145) labeled with Cy5 (KRRGTNIEKR[Abu]RC(Cy5″)),Rhodamine-positive staining also Cy5-positive (pixels),CHO cells [2],best performing
same,intracellular / plasma membrane distribution,CHO cells [2]; confocal microscopy,direct plasma membrane labeling
KDaaSKKaKRRG (KD[Abu][Abu]SKK[Abu]KRRG) [MCaUF14-25],dose-dependent cell penetration,CHO cells [3]; 2 hrs,yields the greatest cell entry of the dye
GDaLPHLKLC (GD[Abu]LPHLKLC) [MCaUF1-9-C],cell penetration (fluorescence accumulation within cells),CHO cells [3],showed CPP properties; also recorded: better CPP than MCaUF1-15-C
KDalKHLQR (KD[Abu]IKHLQR) [HadUF3-11],cell penetration (CPP efficiency),F98 rat glioma cell line,ones of the best performing CPPs
same,cell penetration (CPP efficiency),F98 rat glioma cell line; listed as HadUF3-9(Abu5),perform better as CPP than the maurocalcine derived peptide MCaUF1-9(Abu3)
MCaUF1-15-C-Cy5: MCaUF1-15-C (SEQ ID NO: 135) labeled with Cy5 (GD[Abu]LPHLKL[Abu]KENKDC(Cy5″)),inhibition of cell penetration by amiloride,CHO cells [1],39%
same,amiloride-sensitivity of cell penetration,CHO cells [1],higher amiloride-sensitivity than MCaUF1-33-C-Cy5
MCaUF14-25-C-Cy5: MCaUF14-25-C (SEQ ID NO: 139) labeled with Cy5 (KD[Abu][Abu]SKK[Abu]KRRGC(Cy5″)),intracellular / plasma membrane distribution,CHO cells [2]; confocal microscopy,sub-plasma membrane rim localization was more evident
same,amiloride-sensitivity of cell penetration,CHO cells [1],higher amiloride-sensitivity than MCaUF1-33-C-Cy5
same,dose-dependent cell penetration,CHO cells [3]; 2 hrs,yields the greatest fluorescence accumulation
MCaUF11-33-C-Cy5: MCaUF11-33-C (SEQ ID NO: 142) labeled with Cy5 (KENKD[Abu][Abu]SKK[Abu]KRRGTNIEKR[Abu]RC(Cy5″)),Cy5-positive pixels rhodamine-positive (colocalization with the plasma membrane indicator),CHO cells [2],21.3±2.6%
same,intracellular / plasma membrane distribution,CHO cells [2]; confocal microscopy,dots appear at higher concentrations within one pole of the cell
same,amiloride-sensitivity of cell penetration,CHO cells [1],higher amiloride-sensitivity than MCaUF1-33-C-Cy5
MCaUF1-20-C-Cy5: MCaUF1-20-C (SEQ ID NO: 134) labeled with Cy5 (GD[Abu]LPHLKL[Abu]KENKD[Abu][Abu]SKKC(Cy5″)),Cy5-positive pixels rhodamine-positive (colocalization with the plasma membrane indicator),CHO cells [2],30.4±1.4%
same,dose-dependent cell penetration,CHO cells [3]; 2 hrs,performing as well as MCaUF8-33-C-Cy5
aLPHLKL ([Abu]LPHLKL) [MCaUF3-9],penetration compared with 3 μM Tat,F98 cell line; 1 μM peptide,proved better CPP than Tat at 3 μM
same,cell penetration (CPP efficiency),F98 rat glioma cell line,ones of the best performing CPPs
same,cell penetration (CPP efficiency),F98 rat glioma cell line; listed as MCaUF3-9(Abu3),efficient CPP
GDaLPHLKLaKENKDC (GD[Abu]LPHLKL[Abu]KENKDC) [MCaUF1-15-C],cell penetration (fluorescence accumulation within cells),CHO cells [3],showed CPP properties
"MCaUF1-9-C-Cy5: MCaUF1-9-C (SEQ ID NO: 136, GDaLPHLKLC) labeled with Cy5 (GD[Abu]LPHLKLC(Cy5″))",Cy5-positive pixels rhodamine-positive (colocalization with the plasma membrane indicator),CHO cells [2],higher values of colocalization
same,intracellular / plasma membrane distribution,CHO cells [2]; confocal microscopy,dots appear at higher concentrations within one pole of the cell
same,concentration with detectable cell penetration,CHO cells [3]; 2 hrs,10 nM
same,dose-dependent cell penetration,CHO cells [3]; 2 hrs,best performing peptide for cell penetration at low concentrations
MCaUF8-33-C-Cy5: MCaUF8-33-C (SEQ ID NO: 141) labeled with Cy5 (KL[Abu]KENKD[Abu][Abu]SKK[Abu]KRRGTNIEKR[Abu]RC(Cy5″)),intracellular / plasma membrane distribution,CHO cells [2]; confocal microscopy,dots appear at higher concentrations within one pole of the cell
same,dose-dependent cell penetration,CHO cells [3]; 2 hrs,did not show any sign of saturation; also recorded: no saturation of cell entry
MCaUF1-33-C-Cy5: MCaUF1-33-C (SEQ ID NO: 140) labeled with Cy5 on the C-terminal Cys (GD[Abu]LPHLKL[Abu]KENKD[Abu][Abu]SKK[Abu]KRRGTNIEKR[Abu]RC(Cy5)),Cy5-positive pixels rhodamine-positive (colocalization with the plasma membrane indicator),CHO cells [2],10.1±2.6%
same,degree of accumulated cell fluorescence,CHO cells [2]; confocal microscopy,penetrate the least
same,inhibition of cell penetration by amiloride,CHO cells [1],19.6%
same,cell penetration (fluorescence accumulation within cells),CHO cells [3],penetrated efficiently within CHO cells
same,dose-dependent cell penetration,CHO cells [3]; 2 hrs,least-performing cell penetrating peptide
MCaUF20-33-C-Cy5: MCaUF20-33-C (SEQ ID NO: 144) labeled with Cy5 (K[Abu]KRRGTNIEKR[Abu]RC(Cy5″)),Rhodamine-positive staining also Cy5-positive (pixels),CHO cells [2],best performing
same,intracellular / plasma membrane distribution,CHO cells [2]; confocal microscopy,Diffuse membrane labeling
same,amiloride-sensitivity of cell penetration,CHO cells [1],enhance rather than inhibit the cell penetration
MCaUF25-33-C-Cy5: MCaUF25-33-C (SEQ ID NO: 146) labeled with Cy5 (GTNIEKR[Abu]RC(Cy5″)),intracellular / plasma membrane distribution,CHO cells [2]; confocal microscopy,dots appear at higher concentrations within one pole of the cell; also recorded: Diffuse membrane labeling
same,amiloride-sensitivity of cell penetration,CHO cells [1],higher amiloride-sensitivity than MCaUF1-33-C-Cy5
"MCaUF1-33: unfolded full-length MCa, six Cys replaced by 2-aminobutyric acid (Abu) (GD[Abu]LPHLKL[Abu]KENKD[Abu][Abu]SKK[Abu]KRRGTNIEKR[Abu]R; not fully specified (residue 33))",amiloride sensitivity of cell entry,cells,largely sensitive to amiloride
same,pharmacological action on / interaction with RyR1,[4],"unable to interact with MCa's target, the ryanodine receptor RyR1"
SEKDalKHLQR (SEKD[Abu]IKHLQR) [HadUF1-11],penetration compared with 3 μM Tat,F98 cell line; 1 μM peptide,proved better CPP than Tat at 3 μM
same,cell penetration (CPP efficiency),F98 rat glioma cell line,ones of the best performing CPPs
same,cell penetration (CPP efficiency),F98 rat glioma cell line; listed as HadUF1-11(Abu5),perform better as CPP than the maurocalcine derived peptide MCaUF1-9(Abu3)
